The record followed here is US20260070945A1, “MACROCYCLIC IMMUNOMODULATORS” (Bristol-Myers Squibb Company, priority 2022, published 2026).

The structures appear in SMILES notation. pIC50: −log10 of the molar value. Where a SMILES comes first, the peptide text is derived from it. Bridges are numbered along the chain shown (N, C = ends). [ ]: non-standard residue; d: D form. The star is where a group is joined. ξ: configuration not given here. Phe(4-CH2CH2COOH) = N[C@@H](Cc1ccc(CCC(=O)O)cc1)C(=O)O; Phe(3-CF3) = N[C@@H](Cc1cccc(C(F)(F)F)c1)C(=O)O; Phe(4-COOH) = N[C@@H](Cc1ccc(C(=O)O)cc1)C(=O)O; Bip = N[C@@H](Cc1ccc(-c2ccccc2)cc1)C(=O)O; NH(CH2)14COOH = O=C(O)CCCCCCCCCCCCCCN*; Phe(3-Me) = Cc1cccc(C[C@H](N)C(=O)O)c1; Val(3-OH) = CC(C)(O)[C@H](N)C(=O)O; 4Pal = N[C@@H](Cc1ccncc1)C(=O)O; Cha = N[C@@H](CC1CCCCC1)C(=O)O; Cit = NC(=O)NCCC[C@H](N)C(=O)O; Ile(3ξ) = CCC(C)[C@H](N)C(=O)O; NMeN = CN[C@@H](CC(N)=O)C(=O)O; Thr(3ξ) = CC(O)[C@H](N)C(=O)O; Carboxymethyl = O=C(O)C*; NMeA = CN[C@@H](C)C(=O)O; Orn = NCCC[C@H](N)C(=O)O; dDap = NC[C@@H](N)C(=O)O; Aun = NCCCCCCCCCCC(=O)O; Dab = NCC[C@H](N)C(=O)O; Dap = NC[C@H](N)C(=O)O; AEEA = NCCOCCOCC(=O)O

T1 sequence (Q15116 25-288): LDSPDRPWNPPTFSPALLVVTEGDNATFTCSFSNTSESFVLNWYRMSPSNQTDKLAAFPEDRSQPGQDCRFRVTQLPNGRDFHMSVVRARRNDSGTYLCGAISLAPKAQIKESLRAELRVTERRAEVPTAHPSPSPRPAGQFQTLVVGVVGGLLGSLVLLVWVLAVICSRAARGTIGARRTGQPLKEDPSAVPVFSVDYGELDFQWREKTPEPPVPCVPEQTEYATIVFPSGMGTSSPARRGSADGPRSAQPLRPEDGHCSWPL

One test addresses T1, PD-1/PD-L1 interaction (PE-labeled human PD-L1-Ig binding to Jurkat cell line over-expressing human PD-1) (Homo sapiens, UniProt Q15116).
T1 construct: expressed in transfected cells; host or cells: Jurkat
As to the kind of experiment: Jurkat-PD-1 Cell Binding High-Content Screening Assay (CBA). The following applies: Jurkat-hPD-1 cells, PE-labeled PD-L1-Ig 20 nM final; read-out: Jurkat HPD1 PDL1 IC50. An outline of the steps:
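Jurkat-hPD-1 cells (8×10^3/well) in DMEM with 10% fetal calf serum were preincubated with compound for 2 h at 37 °C. PE-labeled PD-L1-Ig was then added at 20 nM final for 1 h. Cells were fixed in paraformaldehyde with Hoechst 33342, washed and imaged by high-content imaging.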
For orientation: pIC50 means −log10 of the IC50, conventionally taken in molar units. For `CC(C)C[C@@H]1NC(=O)[C@H](Cc2c[nH]c3ccccc23)NC(=O)[C@H](CC(=O)O)NC(=O)[C@H](Cc2ccc(OCC(=O)O)cc2)NC(=O)[C@H](Cc2ccccc2)NC(=O)CSC[C@@H](C(=O)N[C@H](CN)C(=O)NCCOCCOCC(=O)NCCCCCCCCCCC(=O)O)NC(=O)[C@H](Cc2c[nH]cn2)NC(=O)[C@H](C(C)C)NC(=O)[C@H](CC(C)C)NC(=O)[C@H](CCN)NC(=O)[C@@H](CC(C)C)NC(=O)[C@H](C)N(C)C(=O)[C@H](C(C)C)NC(=O)[C@H](Cc2ccc(-c3ccccc3)cc2)NC1=O` [Example 2037] ({CH2CO}-FY(Carboxymethyl)DWL[Bip]V[NMeA][dL][Dab]LVHC[dDap][AEEA][Aun]-OH; thioether N-14), the pIC50 was 7.54.

Take `Cc1cccc(C[C@@H]2NC(=O)[C@H](CC(=O)O)NC(=O)[C@H](Cc3ccc(C(=O)O)cc3)NC(=O)[C@H](Cc3ccc(OCC(=O)O)cc3)NC(=O)CSC[C@@H](C(=O)N[C@@H](CCN)C(=O)NCCCCCCCCCCC(=O)O)NC(=O)[C@H](C(C)O)NC(=O)[C@H](C(C)C)NC(=O)[C@H](CC3CCCCC3)NC(=O)[C@H](CCN)NC(=O)[C@@H](CC(C)C)NC(=O)[C@H](C)N(C)C(=O)[C@H](CCCNC(N)=O)NC(=O)[C@H](Cc3ccc(-c4ccccc4)cc3)NC(=O)[C@H](CC(C)C)NC2=O)c1` (stereo partly drawn) [Example 2324] ({CH2CO}-Y(Carboxymethyl)[Phe(4-COOH)]D[Phe(3-Me)]L[Bip][Cit][NMeA][dL][Dab][Cha]V[Thr(3ξ)]C[Dab][Aun]-OH; thioether N-14): the pIC50 is 7.89.

`Cc1cccc(C[C@@H]2NC(=O)[C@H](CC(=O)O)NC(=O)[C@H](Cc3ccc(C(=O)O)cc3)NC(=O)[C@H](Cc3ccc(OCC(=O)O)cc3)NC(=O)CSC[C@@H](C(=O)NCCCCCCCCCCC(=O)O)NC(=O)[C@H](CCCNC(N)=O)NC(=O)[C@H](C(C)C)NC(=O)[C@H](CC3CCCCC3)NC(=O)[C@H](CCN)NC(=O)[C@@H](CC(C)C)NC(=O)[C@H](C)N(C)C(=O)[C@H](C(C)C)NC(=O)[C@H](Cc3ccc(-c4ccccc4)cc3)NC(=O)[C@H](C(C)C)NC2=O)c1` [Example 2216] ({CH2CO}-Y(Carboxymethyl)[Phe(4-COOH)]D[Phe(3-Me)]V[Bip]V[NMeA][dL][Dab][Cha]V[Cit]C[Aun]-OH; thioether N-14): the pIC50 is 7.86. On the same count and under the same terms, the result for `Cc1cccc(C[C@@H]2NC(=O)[C@H](CC(=O)O)NC(=O)[C@H](Cc3ccc(OCC(=O)O)cc3)NC(=O)[C@H]([C@@H](C)O)NC(=O)CSC[C@@H](C(=O)N[C@@H](CCN)C(=O)NCCOCCOCC(=O)NCCCCCCCCCCC(=O)O)NC(=O)[C@H]([C@@H](C)O)NC(=O)[C@H](C(C)C)NC(=O)[C@H](CC3CCCCC3)NC(=O)[C@H](CC(N)=O)NC(=O)[C@@H](CC(C)C)NC(=O)[C@H](C)N(C)C(=O)[C@H](Cc3ccc(OCC(=O)O)cc3)NC(=O)[C@H](Cc3ccc(-c4ccccc4)cc3)NC(=O)[C@H](Cc3ccc(OCC(=O)O)cc3)NC2=O)c1` [Example 1362] ({CH2CO}-TY(Carboxymethyl)D[Phe(3-Me)]Y(Carboxymethyl)[Bip]Y(Carboxymethyl)[NMeA][dL]N[Cha]VTC[Dab][AEEA][Aun]-OH; thioether N-14) reads 7.60; that for `CC(C)C[C@@H]1NC(=O)[C@H](Cc2c[nH]c3ccccc23)NC(=O)[C@H](CC(=O)O)NC(=O)[C@H](Cc2ccc(C(=O)O)cc2)NC(=O)[C@H](Cc2ccc(OCC(=O)O)cc2)NC(=O)CSC[C@@H](C(=O)N[C@@H](CCCN)C(=O)NCCCCCCCCCCC(=O)O)NC(=O)[C@H](CCC(=O)O)NC(=O)[C@H](C(C)C)NC(=O)[C@H](CC2CCCCC2)NC(=O)[C@H](CCN)NC(=O)[C@@H](CC(C)C)NC(=O)[C@H](C)N(C)C(=O)[C@H](C(C)C)NC(=O)[C@H](Cc2ccc(-c3ccccc3)cc2)NC1=O` [Example 1328] ({CH2CO}-Y(Carboxymethyl)[Phe(4-COOH)]DWL[Bip]V[NMeA][dL][Dab][Cha]VEC[Orn][Aun]-OH; thioether N-14), 7.62; that for `Cc1cccc(C[C@@H]2NC(=O)[C@H](CC(=O)O)NC(=O)[C@H](Cc3ccc(OCC(=O)O)cc3)NC(=O)[C@H](C(C)O)NC(=O)CSC[C@@H](C(=O)N(C)[C@@H](CC(N)=O)C(=O)NCCOCCOCC(=O)NCCCCCCCCCCC(=O)O)NC(=O)[C@H](CCCNC(N)=O)NC(=O)[C@H](C(C)C)NC(=O)[C@H](CC3CCCCC3)NC(=O)[C@H](CCN)NC(=O)[C@@H](CC(C)C)NC(=O)[C@H](C)N(C)C(=O)[C@H](C(C)C)NC(=O)[C@H](Cc3ccc(-c4ccccc4)cc3)NC(=O)[C@H](C(C)C)NC2=O)c1` (stereo partly drawn) [Example 2305] ({CH2CO}-[Thr(3ξ)]Y(Carboxymethyl)D[Phe(3-Me)]V[Bip]V[NMeA][dL][Dab][Cha]V[Cit]C[NMeN][AEEA][Aun]-OH; thioether N-14), 7.70.

Take `CC(C)C[C@H]1NC(=O)[C@H](C)N(C)C(=O)[C@H](Cc2ccc(O)cc2)NC(=O)[C@H](Cc2ccc(-c3ccccc3)cc2)NC(=O)[C@H](C(C)C)NC(=O)[C@H](Cc2c[nH]c3ccccc23)NC(=O)[C@H](CC(=O)O)NC(=O)[C@H](Cc2ccc(OCC(=O)O)cc2)NC(=O)[C@H](Cc2ccncc2)NC(=O)CSC[C@@H](C(=O)N[C@@H](CCN)C(=O)NCCCCCCCCCCC(=O)O)NC(=O)[C@H]([C@@H](C)O)NC(=O)[C@H](C(C)C)NC(=O)[C@H](CC2CCCCC2)NC(=O)[C@H](CCN)NC1=O` [Example 1324] ({CH2CO}-[4Pal]Y(Carboxymethyl)DWV[Bip]Y[NMeA][dL][Dab][Cha]VTC[Dab][Aun]-OH; thioether N-14): the pIC50 was 7.47. On the same count and under the same terms, the value for `Cc1cccc(C[C@@H]2NC(=O)[C@H](CC(=O)O)NC(=O)[C@H](Cc3ccc(OCC(=O)O)cc3)NC(=O)[C@H](CCCCN)NC(=O)CSC[C@@H](C(=O)N[C@@H](CCCCN)C(=O)NCCCCCCCCCCC(=O)O)NC(=O)[C@H]([C@@H](C)O)NC(=O)[C@H](C(C)C)NC(=O)[C@H](CC3CCCCC3)NC(=O)[C@H](CCN)NC(=O)[C@@H](CC(C)C)NC(=O)[C@H](C)N(C)C(=O)[C@H](Cc3ccc(OCC(=O)O)cc3)NC(=O)[C@H](Cc3ccc(-c4ccccc4)cc3)NC(=O)[C@H](Cc3ccc(C(=O)O)cc3)NC2=O)c1` [Example 1226] ({CH2CO}-KY(Carboxymethyl)D[Phe(3-Me)][Phe(4-COOH)][Bip]Y(Carboxymethyl)[NMeA][dL][Dab][Cha]VTCK[Aun]-OH; thioether N-14) was 7.09; that for `CCC(C)[C@@H]1NC(=O)[C@H](Cc2ccc(-c3ccccc3)cc2)NC(=O)[C@H](C(C)C)NC(=O)[C@H](Cc2c[nH]c3ccccc23)NC(=O)[C@H](CC(=O)O)NC(=O)[C@H](Cc2ccc(OCC(=O)O)cc2)NC(=O)[C@H](C(C)O)NC(=O)CSC[C@@H](C(=O)N[C@H](CC(N)=O)C(=O)NCCOCCOCC(=O)NCCCCCCCCCCC(=O)O)NC(=O)[C@H](CCCCN)NC(=O)[C@H](C(C)C)NC(=O)[C@H](CC2CCCCC2)NC(=O)[C@H](CCN)NC(=O)[C@@H](CC(C)C)NC(=O)[C@H](C)N(C)C1=O` (stereo partly drawn) [Example 2208] ({CH2CO}-[Thr(3ξ)]Y(Carboxymethyl)DWV[Bip][Ile(3ξ)][NMeA][dL][Dab][Cha]VKC[dN][AEEA][Aun]-OH; thioether N-14) was 7.61; that for `CCC(C)[C@@H]1NC(=O)[C@H](Cc2ccc(-c3ccccc3)cc2)NC(=O)[C@H](CC(C)C)NC(=O)[C@H](Cc2c[nH]c3ccccc23)NC(=O)[C@H](CC(=O)O)NC(=O)[C@H](Cc2ccc(C(=O)O)cc2)NC(=O)[C@H](Cc2ccc(OCC(=O)O)cc2)NC(=O)CSC[C@@H](C(=O)NCCOCCOCC(=O)N[C@@H](CN)C(=O)NCCCCCCCCCCC(=O)O)NC(=O)[C@H](CO)NC(=O)[C@H](C(C)C)NC(=O)[C@H](CC2CCCCC2)NC(=O)[C@H](CC(N)=O)NC(=O)[C@@H](CC(C)C)NC(=O)[C@H](C)N(C)C1=O` (stereo partly drawn) [Example 2066] ({CH2CO}-Y(Carboxymethyl)[Phe(4-COOH)]DWL[Bip][Ile(3ξ)][NMeA][dL]N[Cha]VSC[AEEA][Dap][Aun]-OH; thioether N-14) was 6.96.

The same test, now with this note: PE-labeled PD-L1-Ig 20 nM final, Jurkat-hPD-1 cells; read-out: Jurkat HPD1 PDL1 IC50.
Consider `CC(=O)NCCCC[C@@H]1NC(=O)[C@H](C(C)(C)O)NC(=O)[C@H](CC2CCCCC2)NC(=O)[C@H](CCN)NC(=O)[C@@H](CC(C)C)NC(=O)[C@H](C)N(C)C(=O)[C@H](CCC(N)=O)NC(=O)[C@H](Cc2ccc(-c3ccccc3)cc2)NC(=O)[C@H](Cc2ccc(CCC(=O)O)cc2)NC(=O)[C@H](Cc2cccc(C(F)(F)F)c2)NC(=O)[C@H](CC(=O)O)NC(=O)[C@H](Cc2ccc(OCC(=O)O)cc2)NC(=O)[C@H](Cc2ccc(OCC(=O)O)cc2)NC(=O)CSC[C@@H](C(=O)N[C@@H](CCN)C(=O)NCCCCCCCCCCCCCCC(=O)O)NC1=O` [Example 2607] ({CH2CO}-Y(Carboxymethyl)Y(Carboxymethyl)D[Phe(3-CF3)][Phe(4-CH2CH2COOH)][Bip]Q[NMeA][dL][Dab][Cha][Val(3-OH)]K(Ac)C[Dab]-{NH(CH2)14COOH}; thioether N-14), for which the negative logarithm of the IC50 (pIC50) is 7.45. For `Cc1cccc(C[C@@H]2NC(=O)[C@H](CC(=O)O)NC(=O)[C@H](Cc3ccc(OCC(=O)O)cc3)NC(=O)[C@H](C(C)O)NC(=O)CSC[C@@H](C(=O)N[C@@H](CCN)C(=O)NCCOCCOCC(=O)NCCCCCCCCCCC(=O)O)NC(=O)[C@H](CCC(=O)O)NC(=O)[C@H](C(C)C)NC(=O)[C@H](CC3CCCCC3)NC(=O)[C@H](CCN)NC(=O)[C@@H](CC(C)C)NC(=O)[C@H](C)N(C)C(=O)[C@H](Cc3ccc(C(=O)O)cc3)NC(=O)[C@H](Cc3ccc(-c4ccccc4)cc3)NC(=O)[C@H](Cc3ccc(C(=O)O)cc3)NC2=O)c1` (stereo partly drawn) [Example 2553] ({CH2CO}-[Thr(3ξ)]Y(Carboxymethyl)D[Phe(3-Me)][Phe(4-COOH)][Bip][Phe(4-COOH)][NMeA][dL][Dab][Cha]VEC[Dab][AEEA][Aun]-OH; thioether N-14), the pIC50 is 8.32.
